# Assay results from PubChem BioAssay (NCI).
#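 These data come from cells grown in 96-well plates and exposed to compound for 48 hours at five concentrations. At the GI50, growth is halved. TGI: concentration producing complete growth inhibition.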
# Tests used:
# Experiment in all cases: DTP human tumour cell line panel, 48 h
# OVCAR-5 ovarian = system: OVCAR-5 ovarian
# A549 NSCLC = system: A549 NSCLC
# SK-OV-3 ovarian = system: SK-OV-3 ovarian
# UO-31 renal = system: UO-31 renal
# CAKI-1 renal = system: CAKI-1 renal
# SNB-75 CNS = system: SNB-75 CNS
# MOLT-4 leukemia = system: MOLT-4 leukemia
# SF-295 CNS = system: SF-295 CNS
# SF-268 CNS = system: SF-268 CNS
# HOP-62 NSCLC = system: HOP-62 NSCLC
# TK-10 renal = system: TK-10 renal
# HS 578T breast = system: HS 578T breast
# SNB-19 CNS = system: SNB-19 CNS
# SK-MEL-28 melanoma = system: SK-MEL-28 melanoma
# T-47D breast = system: T-47D breast
# UACC-62 melanoma = system: UACC-62 melanoma
# U251 CNS = system: U251 CNS
# HCT-116 colon = system: HCT-116 colon
# MDA-MB-435 = system: MDA-MB-435
# IGROV1 ovarian = system: IGROV1 ovarian
# A498 renal = system: A498 renal
# CCRF-CEM leukemia = system: CCRF-CEM leukemia
# MALME-3M melanoma = system: MALME-3M melanoma
# MCF7 breast = system: MCF7 breast
# EKVX NSCLC = system: EKVX NSCLC
# OVCAR-3 ovarian = system: OVCAR-3 ovarian
# RXF 393 renal = system: RXF 393 renal
# ACHN renal = system: ACHN renal
# NCI/ADR-RES ovarian = system: NCI/ADR-RES ovarian
# SN12C renal = system: SN12C renal
# DU-145 prostate = system: DU-145 prostate
# NCI-H226 lung = system: NCI-H226 lung
# OVCAR-4 ovarian = system: OVCAR-4 ovarian
# HT29 colon = system: HT29 colon
# COLO 205 colon = system: COLO 205 colon
# HCT-15 colon = system: HCT-15 colon
# HCC-2998 colon = system: HCC-2998 colon
# BT-549 breast = system: BT-549 breast
# SF-539 CNS = system: SF-539 CNS
# SK-MEL-2 melanoma = system: SK-MEL-2 melanoma
# HL-60(TB) leukemia = system: HL-60(TB) leukemia
# NCI-H23 lung = system: NCI-H23 lung
# SW-620 colon = system: SW-620 colon
# NCI-H460 lung = system: NCI-H460 lung
# KM12 colon = system: KM12 colon
# K-562 leukemia = system: K-562 leukemia
# HOP-92 NSCLC = system: HOP-92 NSCLC
# NCI-H522 lung = system: NCI-H522 lung
# UACC-257 melanoma = system: UACC-257 melanoma
# LOX IMVI melanoma = system: LOX IMVI melanoma
# M14 melanoma = system: M14 melanoma
# OVCAR-8 ovarian = system: OVCAR-8 ovarian
# 786-0 renal = system: 786-0 renal
smiles,measurement,setting,value
C#CC[C@@H]1C[C@]2(C)[C@H]3CC=C4[C@H]5[C@@H](C)[C@H](C)CC[C@]5(C(=O)NCCCN5CCN(CCCN)CC5)CC[C@@]4(C)[C@]3(C)CC[C@H]2C(C)(C)[C@H]1OC(C)=O,GI50,OVCAR-5 ovarian,1.61 µM
same,TGI,OVCAR-5 ovarian,3.02 µM
Clc1nc(Cl)c2c3c(sc2n1)CCCC3,GI50,A549 NSCLC,> 24.4 µM
same,TGI,A549 NSCLC,> 100 µM
same,GI50,SK-OV-3 ovarian,> 100 µM
same,TGI,SK-OV-3 ovarian,> 100 µM
same,TGI,UO-31 renal,> 100 µM
same,GI50,CAKI-1 renal,> 100 µM
same,TGI,CAKI-1 renal,> 100 µM
same,GI50,SNB-75 CNS,> 100 µM
same,TGI,SNB-75 CNS,> 100 µM
same,GI50,MOLT-4 leukemia,3.61 µM
same,TGI,MOLT-4 leukemia,> 100 µM
same,GI50,SF-295 CNS,> 100 µM
same,TGI,SF-295 CNS,> 100 µM
same,GI50,SF-268 CNS,4.37 µM
same,TGI,SF-268 CNS,> 100 µM
same,GI50,HOP-62 NSCLC,> 100 µM
same,TGI,HOP-62 NSCLC,> 100 µM
same,GI50,TK-10 renal,5.34 µM
same,TGI,TK-10 renal,> 100 µM
same,GI50,OVCAR-5 ovarian,> 100 µM
same,TGI,OVCAR-5 ovarian,> 100 µM
same,TGI,HS 578T breast,> 100 µM
same,GI50,SNB-19 CNS,> 100 µM
same,TGI,SNB-19 CNS,> 100 µM
same,GI50,SK-MEL-28 melanoma,6.97 µM
same,TGI,SK-MEL-28 melanoma,> 100 µM
same,GI50,T-47D breast,> 22.1 µM
same,TGI,T-47D breast,> 100 µM
same,GI50,UACC-62 melanoma,> 100 µM
same,TGI,UACC-62 melanoma,> 100 µM
same,GI50,U251 CNS,> 20 µM
same,TGI,U251 CNS,> 100 µM
same,GI50,HCT-116 colon,3.95 µM
same,TGI,HCT-116 colon,> 100 µM
same,GI50,MDA-MB-435,3.65 µM
same,TGI,MDA-MB-435,> 100 µM
same,GI50,IGROV1 ovarian,3.85 µM
same,TGI,IGROV1 ovarian,> 100 µM
same,GI50,A498 renal,> 100 µM
same,TGI,A498 renal,> 100 µM
same,GI50,CCRF-CEM leukemia,17.1 µM
same,TGI,CCRF-CEM leukemia,> 100 µM
same,GI50,MALME-3M melanoma,> 100 µM
same,TGI,MALME-3M melanoma,> 100 µM
same,GI50,MCF7 breast,3.56 µM
same,TGI,MCF7 breast,> 100 µM
same,GI50,EKVX NSCLC,> 100 µM
same,TGI,EKVX NSCLC,> 100 µM
same,GI50,OVCAR-3 ovarian,3.3 µM
same,TGI,OVCAR-3 ovarian,> 30.4 µM
same,GI50,RXF 393 renal,4.06 µM
same,TGI,RXF 393 renal,> 100 µM
same,GI50,ACHN renal,5.27 µM
same,TGI,ACHN renal,> 100 µM
same,GI50,NCI/ADR-RES ovarian,5.29 µM
same,TGI,NCI/ADR-RES ovarian,> 100 µM
same,GI50,SN12C renal,3.26 µM
same,TGI,SN12C renal,> 100 µM
same,GI50,DU-145 prostate,3.71 µM
same,TGI,DU-145 prostate,> 100 µM
same,GI50,NCI-H226 lung,2.54 µM
same,TGI,NCI-H226 lung,> 28.8 µM
same,GI50,OVCAR-4 ovarian,5.5 µM
same,TGI,OVCAR-4 ovarian,> 100 µM
same,GI50,HT29 colon,3.67 µM
same,TGI,HT29 colon,> 100 µM
same,GI50,COLO 205 colon,2.75 µM
same,TGI,COLO 205 colon,> 22.6 µM
same,GI50,HCT-15 colon,4.07 µM
same,TGI,HCT-15 colon,> 100 µM
same,GI50,HCC-2998 colon,> 28.9 µM
same,TGI,HCC-2998 colon,> 100 µM
same,GI50,BT-549 breast,3.63 µM
same,TGI,BT-549 breast,> 100 µM
same,GI50,SF-539 CNS,> 100 µM
same,TGI,SF-539 CNS,> 100 µM
same,TGI,SK-MEL-2 melanoma,> 59.7 µM
same,GI50,HL-60(TB) leukemia,> 27.4 µM
same,TGI,HL-60(TB) leukemia,> 100 µM
same,GI50,NCI-H23 lung,5.92 µM
same,TGI,NCI-H23 lung,> 100 µM
same,GI50,SW-620 colon,5.37 µM
same,TGI,SW-620 colon,> 100 µM
same,GI50,NCI-H460 lung,> 100 µM
same,TGI,NCI-H460 lung,> 100 µM
same,GI50,KM12 colon,> 100 µM
same,TGI,KM12 colon,> 100 µM
same,GI50,K-562 leukemia,3.77 µM
same,TGI,K-562 leukemia,> 100 µM
same,GI50,HOP-92 NSCLC,3.88 µM
same,TGI,HOP-92 NSCLC,> 100 µM
same,GI50,NCI-H522 lung,1.64 µM
same,TGI,NCI-H522 lung,> 26 µM
same,GI50,UACC-257 melanoma,> 26.1 µM
same,TGI,UACC-257 melanoma,> 100 µM
same,GI50,LOX IMVI melanoma,1.78 µM
same,TGI,LOX IMVI melanoma,> 100 µM
same,GI50,M14 melanoma,4.49 µM
same,TGI,M14 melanoma,> 100 µM
same,GI50,OVCAR-8 ovarian,4.38 µM
same,TGI,OVCAR-8 ovarian,> 100 µM
same,GI50,786-0 renal,5.17 µM
same,TGI,786-0 renal,> 100 µM
